The values that follow come from US10183941B2, “Pyrimidine or pyridopyridone compound and application thereof” (GUANGZHOU BEBETTER MEDICINE TECHNOLOGY CO., LTD., priority 2015, dated 2019).

Molecules are shown by their SMILES.

By IC50 is commonly meant the midpoint of a concentration-inhibition curve.

Assay [1] deals with T1, CDK6 (GST-CDK6(1-326end)) (Homo sapiens, UniProt Q00534).
T1 construct: GST-CDK6(1-326end); purchased Carna 04-107
In words: CDK6 activity inhibition experiment (Caliper mobility shift assay). In kind it is biochemical. The conditions noted are these: enzyme activity inhibition; read-out: CDK6 IC50 class. As for the experimental part: The activity of CDK6 protein kinase was measured using Caliper mobility shift assay (see J. Biomol Screen 14:31, 2009). […] 10 μl of the 2.5 times diluted CDK6 enzyme solution (GST-CDK6(1-326end); Carna, Cat. No 04-107) was added and then incubated at room temperature for 10 minutes, then 10 μl of the 2.5 times diluted substrate solution Peptide FAM-P8 (GL Biochem, Cat. No. 112396) was added. After being incubated at 28° C. for 40 minutes, 25 μl of stop solution was added to stop the reaction. Conversion rate data was read from Caliper EZ Reader II (Caliper Life Sciences). The conversion rate data was converted into inhibition rate data. […] Conversion rate data was converted into inhibition rate data according to the method described above. Inhibition rate %=(max−conversion rate)/(max−min)×100.

The subject of the next assay is MDA-MB-231. In words: Tumor cell proliferation inhibition (CellTiter-Glo), MDA-MB-231. The conditions noted are these: Homo sapiens, 72 hours, 10% fetal bovine serum, read-out: MDA-MB-231 IC50 class. In kind it is cell-based. As for the experimental part: The content of adenosine triphosphate (ATP) was determined using the CellTiter-Glo Luminescent Cell Viability Assay Kit (Promega, Madison, Wis.) to evaluate cell viability. Tumor cell lines (SW620, ZR-75-1, MDA-MB-231) were purchased from the Cell Resource Center of IBS, Fudan University, Shanghai and the American Type Culture Collection (ATCC). The cell density was determined using Scepter automated cell counter (Millipore # PHCC00000) after the cells were digested with pancreatin in cell culture dishes and resuspended in DPBS medium. The cells were diluted to a solution of 44,000 cells per ml. The cell solution of which density was adjusted was added into the cell assay plate at 90 microliters per well. The well plate was incubated in an incubator with 5% CO2 at 37° C. for 24 hours and then added with test compounds with different concentrations. The cells were incubated with the compounds in the presence of 10% fetal bovine serum for 72 hours. ATP content was assayed using the CellTiter-Glo® Luminescent Cell Viability Assay kit (see instructions of manufacturer) to assess cell growth inhibition. Briefly, 30 μl of CellTiter-Glo® reagent was added to each well, rocked for 10 minutes to induce cell lysis, and […] were detected and recorded with Fluoroskan Ascent FL (Thermo). The maximum signal value was obtained from the cells treated with dimethyl sulfoxide for 72 hours. The minimum signal value was obtained from the separate culture medium (cell number was zero). Inhibition rate %=(maximum signal value−compound signal value)/(maximum signal value−minimum signal value)×100. Data was processed using GraphPad Prism V5.0 (GraphPad Software, San Diego, Calif.) software. IC50 values were calculated by fitting S-shaped dose-response curves.
On the technique in general: ATP-based viability assays read luminescence as a measure of living cells.

Assay [2] deals with MDA-MB-435 breast cancer cells. Put plainly: Pharmacodynamic experiment, MDA-MB-435 xenograft. In kind it is in vivo, mouse. As for the experimental part:
MDA-MB-435 breast cancer cells were obtained from Shanghai Cell Bank of Chinese Academy of Sciences. Cryopreserved cells were thawed in a 37° C. water bath and then placed in RPMI 1640 medium supplemented with 10% fetal bovine serum (FBS), 1% insulin (Bioman Biotech, Shanghai) and incubated in 5% CO2 of Tissue Culture Incubator. […] The sign of successful transplantation was the formation of a round bulging lump under the skin. Tumor size can be measured approximately two weeks after implantation. The tumor size was measured by a caliper.

T1 sequence (Q00534 whole entry): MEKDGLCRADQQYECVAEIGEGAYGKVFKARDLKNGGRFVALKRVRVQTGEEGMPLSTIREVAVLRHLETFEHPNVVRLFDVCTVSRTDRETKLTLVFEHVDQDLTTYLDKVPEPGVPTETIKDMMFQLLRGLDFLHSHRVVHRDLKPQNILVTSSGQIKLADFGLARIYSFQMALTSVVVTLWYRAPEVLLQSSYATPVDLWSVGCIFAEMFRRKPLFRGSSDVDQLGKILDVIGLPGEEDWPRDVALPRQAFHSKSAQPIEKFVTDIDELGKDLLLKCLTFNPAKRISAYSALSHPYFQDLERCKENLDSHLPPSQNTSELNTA
T1 sequence (P30281 whole entry partner): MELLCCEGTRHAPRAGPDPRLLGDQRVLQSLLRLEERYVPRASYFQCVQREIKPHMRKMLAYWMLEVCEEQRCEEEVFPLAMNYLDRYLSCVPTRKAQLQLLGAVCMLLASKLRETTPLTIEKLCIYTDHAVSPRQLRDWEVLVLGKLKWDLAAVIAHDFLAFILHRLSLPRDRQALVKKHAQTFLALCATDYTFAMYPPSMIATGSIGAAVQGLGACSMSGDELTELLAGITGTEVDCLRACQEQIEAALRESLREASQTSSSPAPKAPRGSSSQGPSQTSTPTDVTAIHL

Turning to `CC(=O)c1c(C)c2cnc(Nc3ccc(C4CCN(CCS(C)(=O)=O)CC4)cn3)nc2n(C2CCCC2)c1=O` [Compound 1, 6-acetyl-8-cyclopentyl-5-methyl-2-((5-(1-(2-(methylsulfonyl)ethyl)piperidin-4-yl)pyridin-2-yl)amino)pyrido[2,3-d]pyrimidin-7(8H)-one], the figures for the IC50 (in assay [1]; in the assay with MDA-MB-231) were 10 to 50 nM and 100 to 500 nM, respectively. For the same compound, the T/C value in assay [2] (after 14 days of oral administration, PD-0332991 150 then 100 mg/kg once daily, Compound 1 75 mg/kg twice daily) is listed as 25%; in assay [2] (day 6 after discontinuation (D20)) it was 32%.
